Results published in US7858786B2, “Pyrimidines and pyrazines useful as modulators of ion channels” (Vertex Pharmaceuticals Incoropated, priority 2005, dated 2010).

These compounds were tested against NaV1.8 (Homo sapiens, UniProt Q9Y5Y9) (assay: Activity against NaV 1.8 channel (NaV inhibition assay)).
Format: cell-based
Experimental: Compounds of the invention are useful as antagonists of voltage-gated sodium ion channels. Antagonist properties of test compounds were assessed as follows. Cells expressing the NaV of interest were placed into microtiter plates. After an incubation period, the cells were stained with fluorescent dyes sensitive to the transmembrane potential. The test compounds were added to the microtiter plate. The cells were stimulated with either a chemical or electrical means to evoke a NaV dependent membrane potential change from unblocked channels, which was detected and measured with trans-membrane potential-sensitive dyes. Antagonists were detected as a decreased membrane potential response to the stimulus. The optical membrane potential assay utilized voltage-sensitive FRET sensors described by Gonzalez and Tsien (See, Gonzalez, J. E. and R. Y. Tsien (1995) “Voltage sensing by fluorescence resonance energy transfer in single cells” Biophys J 69(4):1272-80, and Gonzalez, J. E. and R. Y. Tsien (1997) “Improved indicators of cell membrane potential that use fluorescence resonance energy transfer” Chem Biol 4(4):269-77) in combination with instrumentation for measuring fluorescence changes such as the Voltage/Ion Probe Reader (VIPRO®) (See, Gonzalez, J. E., K. Oades, et al. (1999) “Cell-based assays and instrumentation for screening ion-channel targets” Drug Discov Today 4(9):431-439).
24 hours before the assay on VIPR, CHO cells endogenously expressing a NaV1.2 type voltage-gated NaV are seeded in 96-well poly-lysine coated plates at 60,000 cells per well. Other subtypes are performed in an analogous mode in a cell line expressing the NaV of interest.
The following is an example of how NaV1.3 inhibition activity is measured using the optical membrane potential method #2. Other subtypes are performed in an analogous mode in a cell line expressing the NaV of interest.
HEK293 cells stably expressing NaV1.3 are plated into 96-well microtiter plates. After an appropriate incubation period, the cells are stained with the voltage sensitive dyes CC2-DMPE/DiSBAC2(3) as follows.
Patch clamp electrophysiology was used to assess the efficacy and selectivity of sodium channel blockers in dorsal root ganglion neurons. Rat neurons were isolated from the dorsal root ganglions and maintained in culture for 2 to 10 days in the presence of NGF (50 ng/ml) (culture media consisted of NeurobasalA supplemented with B27, glutamine and antibiotics). Small diameter neurons (nociceptors, 8-12 μm in diameter) have been visually identified and probed with fine tip glass electrodes connected to an amplifier (Axon Instruments). The “voltage clamp” mode has been used to assess the compound's IC50 holding the cells at −60 mV. In addition, the “current clamp” mode has been employed to test the efficacy of the compounds in blocking action potential generation in response to current injections. The results of these experiments have contributed to the definition of the efficacy profile of the compounds.
TTX-resistant sodium currents were recorded from DRG somata using the whole-cell variation of the patch clamp technique. Recordings were made at room temperature (˜22° C.) with thick walled borosilicate glass electrodes (WPI; resistance 3-4 MΩ) using an Axopatch 200B amplifier (Axon Instruments). After establishing the whole-cell configuration, approximately 15 minutes were allowed for the pipette solution to equilibrate within the cell before beginning recording. Currents were lowpass filtered between 2-5 kHz and digitally sampled at 10 kHz. Series resistance was compensated 60-70% and was monitored continuously throughout the experiment. The liquid junction potential (−7 mV) between the intracellular pipette solution and the external recording solution was not accounted for in the data analysis. Test solutions were applied to the cells with a gravity driven fast perfusion system (SF-77; Warner Instruments). […]

IC50 [µM]	Structure (SMILES)
> 15	CC(C)C[C@@H](O)C(=O)N1CCN(c2cncc(-c3ccccc3O)n2)CC1 [Compound 38, 2-hydroxy-1-[4-[6-(2-hydroxyphenyl)pyrazin-2-yl]piperazin-1-yl]-4-methyl-pentan-1-one]
> 15	CC(C)C(=O)N[C@@H]1CCN(c2cncc(-c3ccccc3C(F)F)n2)C1 [Compound 28, N-[1-[6-[2-(difluoromethyl)phenyl]pyrazin-2-yl]pyrrolidin-3-yl]-2-methyl-propanamide]
> 15	CC(C)OC(=O)N[C@@H]1CCN(c2cncc(-c3ccccc3O)n2)C1 [Compound 41, [1-[6-(2-hydroxyphenyl)pyrazin-2-yl]pyrrolidin-3-yl]aminoformic acid isopropyl ester]
< 10	CC(C)COC(=O)NC1CCN(c2cncc(-c3ccccc3F)n2)CC1 [Compound 45, [1-[6-(2-fluorophenyl)pyrazin-2-yl]-4-piperidyl]aminoformic acid isobutyl ester]
< 10	CC(C)COC(=O)NC1CCN(c2cncc(-c3ccccc3C(F)F)n2)CC1 [Compound 48, [1-[6-[2-(difluoromethyl)phenyl]pyrazin-2-yl]-4-piperidyl]aminoformic acid isobutyl ester]
> 15	CC(C)(C)OC(=O)N[C@@H]1CCN(c2cncc(-c3ccccc3O)n2)C1 [Compound 40, [1-[6-(2-hydroxyphenyl)pyrazin-2-yl]pyrrolidin-3-yl]aminoformic acid tert-butyl ester]
< 10	CC(C)C[C@@H](O)C(=O)N1CCN(c2nccc(-c3ccccc3O)n2)CC1 [Compound 39, 2-hydroxy-1-[4-[4-(2-hydroxyphenyl)pyrimidin-2-yl]piperazin-1-yl]-4-methyl-pentan-1-one]
> 15	CC(C)C[C@@H](O)C(=O)N1CCN(c2cc(-c3ccccc3F)ncn2)CC1 [Compound 44, 1-[4-[6-(2-fluorophenyl)pyrimidin-4-yl]piperazin-1-yl]-2-hydroxy-4-methyl-pentan-1-one]
> 15	CC(C)COC(=O)N1CCN(c2ccnc(-c3ccccc3O)n2)CC1 [Compound 34, 4-[2-(2-hydroxyphenyl)pyrimidin-4-yl]piperazine-1-carboxylic acid isobutyl ester]
> 15	CC(C)C[C@@H](O)C(=O)N1CCN(c2cc(-c3ccccc3C(F)F)ncn2)CC1 [Compound 49, 1-[4-[6-[2-(difluoromethyl)phenyl]pyrimidin-4-yl]piperazin-1-yl]-2-hydroxy-4-methyl-pentan-1-one]
> 15	CC(C)COC(=O)N1CCN(c2cncc(-c3ccccc3F)n2)CC1 [Compound 46, 4-[6-(2-fluorophenyl)pyrazin-2-yl]piperazine-1-carboxylic acid isobutyl ester]
10 to 15	CC(C)COC(=O)NC1CCN(c2ccnc(-c3ccccc3O)n2)CC1 [Compound 35, [1-[2-(2-hydroxyphenyl)pyrimidin-4-yl]-4-piperidyl]aminoformic acid isobutyl ester]

The next lines start with the compound.

Structure (SMILES)	IC50 [µM]
CC(C)COC(=O)NC1CCN(c2cncc(-c3ccccc3O)n2)CC1 [Compound 18, [1-[6-(2-hydroxyphenyl)pyrazin-2-yl]-4-piperidyl]aminoformic acid isobutyl ester]	< 10
CC(C)COC(=O)NC1CCN(c2ccnc(-c3ccccc3C(F)F)n2)CC1 [Compound 13, [1-[2-[2-(difluoromethyl)phenyl]pyrimidin-4-yl]-4-piperidyl]aminoformic acid isobutyl ester]	< 10
CC(C)C(=O)N[C@@H]1CCN(c2cncc(-c3ccccc3O)n2)C1 [Compound 14, N-[1-[6-(2-hydroxyphenyl)pyrazin-2-yl]pyrrolidin-3-yl]-2-methyl-propanamide]	> 15
O=C(NC1CCN(c2ccnc(-c3ccccc3F)n2)CC1)[C@H]1CCCO1 [Compound 2, N-[1-[2-(2-fluorophenyl)pyrimidin-4-yl]-4-piperidyl]tetrahydrofuran-2-carboxamide]	> 15
COCCOC(=O)N[C@@H]1CCN(c2cncc(-c3ccccc3O)n2)C1 [Compound 16, [1-[6-(2-hydroxyphenyl)pyrazin-2-yl]pyrrolidin-3-yl]aminoformic acid 2-methoxyethyl ester]	> 15
CC(C)C[C@@H](O)C(=O)N1CCN(c2cc(-c3ccccc3O)ncn2)CC1 [Compound 26, 2-hydroxy-1-[4-[6-(2-hydroxyphenyl)pyrimidin-4-yl]piperazin-1-yl]-4-methyl-pentan-1-one]	> 15
CC(C)COC(=O)NC1CCN(c2nccc(-c3ccccc3O)n2)CC1 [Compound 1, [1-[4-(2-hydroxyphenyl)pyrimidin-2-yl]-4-piperidyl]aminoformic acid isobutyl ester]	> 15
CC(C)COC(=O)N1CCN(c2nccc(-c3ccccc3C(F)F)n2)CC1 [Compound 24, 4-[4-[2-(difluoromethyl)phenyl]pyrimidin-2-yl]piperazine-1-carboxylic acid isobutyl ester]	10 to 15
CC(C)COC(=O)N1CCN(c2cc(-c3ccccc3F)ncn2)CC1 [Compound 23, 4-[6-(2-fluorophenyl)pyrimidin-4-yl]piperazine-1-carboxylic acid isobutyl ester]	> 15
CC(C)C[C@@H](O)C(=O)N1CCN(c2nccc(-c3ccccc3C(F)F)n2)CC1 [Compound 6, 1-[4-[4-[2-(difluoromethyl)phenyl]pyrimidin-2-yl]piperazin-1-yl]-2-hydroxy-4-methyl-pentan-1-one]	10 to 15
CC(C)(C)OC(=O)N[C@@H]1CCN(c2cncc(-c3ccccc3F)n2)C1 [Compound 8, [1-[6-(2-fluorophenyl)pyrazin-2-yl]pyrrolidin-3-yl]aminoformic acid tert-butyl ester]	10 to 15
CC(C)C[C@@H](O)C(=O)N1CCN(c2ccnc(-c3ccccc3C(F)F)n2)CC1 [Compound 21, 1-[4-[2-[2-(difluoromethyl)phenyl]pyrimidin-4-yl]piperazin-1-yl]-2-hydroxy-4-methyl-pentan-1-one]	> 15
CC(C)C[C@@H](O)C(=O)N1CCN(c2ccnc(-c3ccccc3O)n2)CC1 [Compound 12, 2-hydroxy-1-[4-[2-(2-hydroxyphenyl)pyrimidin-4-yl]piperazin-1-yl]-4-methyl-pentan-1-one]	10 to 15
CC(C)COC(=O)N1CCN(c2ccnc(-c3ccccc3F)n2)CC1 [Compound 10, 4-[2-(2-fluorophenyl)pyrimidin-4-yl]piperazine-1-carboxylic acid isobutyl ester]	> 15
CC(C)(C)OC(=O)NC1CCN(c2cncc(-c3ccccc3F)n2)CC1 [Compound 3, [1-[6-(2-fluorophenyl)pyrazin-2-yl]-4-piperidyl]aminoformic acid tert-butyl ester]	< 10
CC(C)OC(=O)N[C@@H]1CCN(c2cncc(-c3ccccc3F)n2)C1 [Compound 22, [1-[6-(2-fluorophenyl)pyrazin-2-yl]pyrrolidin-3-yl]aminoformic acid isopropyl ester]	> 15
COCCOC(=O)NC1CCN(c2cncc(-c3ccccc3F)n2)CC1 [Compound 9, [1-[6-(2-fluorophenyl)pyrazin-2-yl]-4-piperidyl]aminoformic acid 2-methoxyethyl ester]	< 10
